Assay results: patent publication US10765114B2, “4-amino-6-(pyridyl and 2-substitutedphenyl)-picolinates and 6-amino-2-(pyridyl and 2-substitutedphenyl)-pyrimidine-4-carboxylates and their use as herbicides” (Dow AgroSciences LLC, priority 2013, dated 2020)

Legend:
Experiment in all cases: Post-Emergent Test III (Wheat and Barley)
APESV (windgrass) = type: in vivo, Apera spica-venti
Method: (§1) Seeds of the desired test plant species were planted in Sun Gro MetroMix® 306 planting mixture, which typically has a pH of 6.0 to 6.8 and an organic matter content of about 30 percent, in plastic pots with a surface area of 103.2 square centimeters (cm^2). When required to ensure good germination and healthy plants, a fungicide treatment and/or other chemical or physical treatment was applied. The plants were grown for 7-36 days in a greenhouse with an approximate 14 h photoperiod which was maintained at about 18° C. during the day and 17° C. during the night. Nutrients and water were added on a regular basis and supplemental lighting was provided with overhead metal halide 1000-Watt lamps as necessary. The plants were employed for testing when they reached the second or third true leaf stage.
(§2) A weighed amount, determined by the highest rate to be tested, of each test compound was placed in a 25 mL glass vial and was dissolved in 4 mL of a 97:3 v/v mixture of acetone and DMSO to obtain concentrated stock solutions. […] The concentrated stock solutions obtained were diluted with 20 mL of an aqueous mixture containing acetone, water, isopropyl alcohol, DMSO, Agri-Dex crop oil concentrate, and X-77 surfactant in a 48:39:10:1.5:1.5:0.02 v/v ratio to obtain spray solutions containing the highest application rates. Additional application rates were obtained by serial dilution of 12 mL of the high rate solution into a solution containing 2 mL of 97:3 v/v mixture of acetone and DMSO and 10 mL of an aqueous mixture containing acetone, water, isopropyl alcohol, DMSO, Agri-Dex crop oil concentrate, and X-77 surfactant in a 48:39:10:1.5:1.5:0.02 v/v ratio to obtain ½×, ¼×, ⅛× and 1/16× rates of the high rate. Compound requirements are based upon a 12 mL application volume at a rate of 187 liters per hectare (L/ha). Formulated compounds were applied to the plant material with an overhead Mandel track sprayer equipped with 8002E nozzles calibrated to deliver 187 L/ha over an application area of 0.503 square meters at a spray height of 18 inches (43 cm) above the average plant canopy height. Control plants were sprayed in the same manner with the solvent blank.
(§3) The treated plants and control plants were placed in a greenhouse as described above and watered by subirrigation to prevent wash-off of the test compounds. After 21 dAYS, the condition of the test plants as compared with that of the untreated plants was determined visually and scored on a scale of 0 to 100 percent where 0 corresponds to no injury and 100 corresponds to complete kill and presented as indicated in Table A.
(§4) By applying the well-accepted probit analysis as described by J. Berkson in Journal of the American Statistical Society, 48, 565 (1953) and by D. Finney in “Probit Analysis” Cambridge University Press (1952), herbicidal injury of a specific compound at various rates can be used to calculate GR10, GR20, GR50, GR80 and GR90 values, which are defined as growth reduction factors that correspond to the effective dose of herbicide required to provide plant growth reduction (GR) of 10 percent, 20 percent, 50 percent, 80 percent and 90 percent, respectively. Probit analysis was applied to data collected from multiple dose rates of individual compounds utilizing the procedures explained in the following examples. The analysis of those dose rates is captured in the following tables.

[1] = system: LAMPU (purple deadnettle); type: in vivo, Lamium purpureum; settings: for Visual Growth Reduction (%) 21 Days After Application, LAMPU: postemergence
Method: as §1, §2, §3, §4

POLCO (wild buckwheat) = type: in vivo, Polygonum convolvulus; settings: for Visual Growth Reduction (%) 21 Days After Application, POLCO: postemergence
Method: as §1, §2, §3, §4

TRZSS = type: in vivo
In short: (§5)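 Seedlings are raised in a greenhouse at about 18/17 °C with a 14 h photoperiod until the second or third true leaf. They are then sprayed overhead at 187 L/ha over a range of rates down to 1/16× the highest. After 21 days, injury is scored visually, 0–100%.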

BRSSS = type: in vivo; settings: for Visual Growth Reduction (%) 21 Days After Application, BRSSS: postemergence
In short: as §5

HORSS = type: in vivo
In short: as §5

SASKR (Russian thistle) = type: in vivo, Salsola tragus; settings: for Visual Growth Reduction (%) 21 Days After Application, SASKR: postemergence
Method: as §1, §2, §3, §4

KCHSC (kochia) = type: in vivo, Kochia scoparia
In short: as §5

[2] = effective dose for growth reduction of 50 percent, probit analysis
[3] = effective dose for growth reduction of 80 percent, probit analysis
[4] = effective dose for growth reduction of 90 percent, probit analysis
[5] = effective dose for growth reduction of 10 percent, probit analysis
[6] = effective dose for growth reduction of 20 percent, probit analysis

## Nc1c(F)c(-c2ccc(C(F)(F)F)nc2)nc(C(=O)O)c1Cl [Compound 46, 4-amino-5-chloro-3-fluoro-6′-(trifluoromethyl)-[2,3′-bipyridine]-6-carboxylic acid]
APESV (windgrass); Apera spica-venti, post-emergence, 504 h, 35 g ai/ha, postemergence, read-out: Visual Growth Reduction (%) 21 Days After Application, APESV
  pest or weed control at 35 g/ha: 60 to 74%
APESV (windgrass); Apera spica-venti, post-emergence, 504 h, 70 g ai/ha, postemergence, read-out: Visual Growth Reduction (%) 21 Days After Application, APESV
  pest or weed control at 70 g/ha: 75 to 84%
APESV (windgrass); Apera spica-venti, post-emergence, 504 h, 140 g ai/ha, postemergence, read-out: Visual Growth Reduction (%) 21 Days After Application, APESV
  pest or weed control at 140 g/ha: 85 to 94%
APESV (windgrass); [2]
  GR50, APESV: 37 g ai/ha
APESV (windgrass); [3]
  GR80, APESV: 78 g ai/ha
APESV (windgrass); [4]
  GR90, APESV: 115 g ai/ha
[1]; 35 g ai/ha
  Visual Growth Reduction (%) 21 Days After Application, LAMPU: D (60-74)
[1]; 70 g ai/ha
  Visual Growth Reduction (%) 21 Days After Application, LAMPU: D (60-74)
[1]; 140 g ai/ha
  Visual Growth Reduction (%) 21 Days After Application, LAMPU: A (95-100)
[1]; [2]
  GR50, LAMPU: 14 g ai/ha
[1]; [3]
  GR80, LAMPU: 47 g ai/ha
[1]; [4]
  GR90, LAMPU: 89 g ai/ha
POLCO (wild buckwheat); 35 g ai/ha
  Visual Growth Reduction (%) 21 Days After Application, POLCO: E (45-59)
POLCO (wild buckwheat); 70 g ai/ha
  Visual Growth Reduction (%) 21 Days After Application, POLCO: D (60-74)
POLCO (wild buckwheat); 140 g ai/ha
  Visual Growth Reduction (%) 21 Days After Application, POLCO: D (60-74)
POLCO (wild buckwheat); [2]
  GR50, POLCO: 27 g ai/ha
POLCO (wild buckwheat); [3]
  GR80, POLCO: >140 g ai/ha
POLCO (wild buckwheat); [4]
  GR90, POLCO: >140 g ai/ha
TRZSS; Triticum aestivum, post-emergence, 504 h, 35 g ai/ha, postemergence, read-out: Visual Growth Reduction (%) 21 Days After Application, TRZSS
  pest or weed control at 35 g/ha: 75 to 84%
TRZSS; Triticum aestivum, post-emergence, 504 h, 70 g ai/ha, postemergence, read-out: Visual Growth Reduction (%) 21 Days After Application, TRZSS
  pest or weed control at 70 g/ha: 75 to 84%
TRZSS; Triticum aestivum, post-emergence, 504 h, 140 g ai/ha, postemergence, read-out: Visual Growth Reduction (%) 21 Days After Application, TRZSS
  pest or weed control at 140 g/ha: 85 to 94%
TRZSS; [5]
  GR10, TRZSS: 1 g ai/ha
TRZSS; [6]
  GR20, TRZSS: 1 g ai/ha
BRSSS; 35 g ai/ha
  Visual Growth Reduction (%) 21 Days After Application, BRSSS: D (60-74)
BRSSS; 70 g ai/ha
  Visual Growth Reduction (%) 21 Days After Application, BRSSS: D (60-74)
BRSSS; 140 g ai/ha
  Visual Growth Reduction (%) 21 Days After Application, BRSSS: C (75-84)
BRSSS; [2]
  GR50, BRSSS: 11 g ai/ha
BRSSS; [3]
  GR80, BRSSS: >140 g ai/ha
BRSSS; [4]
  GR90, BRSSS: >140 g ai/ha
HORSS; Hordeum vulgare, post-emergence, 504 h, 35 g ai/ha, postemergence, read-out: Visual Growth Reduction (%) 21 Days After Application, HORSS
  pest or weed control at 35 g/ha: 60 to 74%
HORSS; Hordeum vulgare, post-emergence, 504 h, 70 g ai/ha, postemergence, read-out: Visual Growth Reduction (%) 21 Days After Application, HORSS
  pest or weed control at 70 g/ha: 75 to 84%
HORSS; Hordeum vulgare, post-emergence, 504 h, 140 g ai/ha, postemergence, read-out: Visual Growth Reduction (%) 21 Days After Application, HORSS
  pest or weed control at 140 g/ha: 85 to 94%
HORSS; [5]
  GR10, HORSS: 1 g ai/ha
HORSS; [6]
  GR20, HORSS: 3 g ai/ha
SASKR (Russian thistle); 35 g ai/ha
  Visual Growth Reduction (%) 21 Days After Application, SASKR: E (45-59)
SASKR (Russian thistle); 70 g ai/ha
  Visual Growth Reduction (%) 21 Days After Application, SASKR: D (60-74)
SASKR (Russian thistle); 140 g ai/ha
  Visual Growth Reduction (%) 21 Days After Application, SASKR: D (60-74)
SASKR (Russian thistle); [2]
  GR50, SASKR: 23 g ai/ha
SASKR (Russian thistle); [3]
  GR80, SASKR: >140 g ai/ha
SASKR (Russian thistle); [4]
  GR90, SASKR: >140 g ai/ha
KCHSC (kochia); Bassia scoparia, post-emergence, 504 h, 35 g ai/ha, postemergence, read-out: Visual Growth Reduction (%) 21 Days After Application, KCHSC
  pest or weed control at 35 g/ha: 60 to 74%
KCHSC (kochia); Bassia scoparia, post-emergence, 504 h, 70 g ai/ha, postemergence, read-out: Visual Growth Reduction (%) 21 Days After Application, KCHSC
  pest or weed control at 70 g/ha: 60 to 74%
KCHSC (kochia); Bassia scoparia, post-emergence, 504 h, 140 g ai/ha, postemergence, read-out: Visual Growth Reduction (%) 21 Days After Application, KCHSC
  pest or weed control at 140 g/ha: 85 to 94%
KCHSC (kochia); [2]
  GR50, KCHSC: 29 g ai/ha
KCHSC (kochia); [3]
  GR80, KCHSC: 104 g ai/ha
KCHSC (kochia); [4]
  GR90, KCHSC: >140 g ai/ha
